Measurements: patent publication US10751417B2, “Sustained release delivery systems comprising traceless linkers” (NOVARTIS AG, priority 2017, dated 2020)

assay: Release study 8-4a: model traceless linker-drug conjugates M1-M19 held in 1×PBS at 37 °C, HPLC-UV/MS; type: physicochemical; settings: 1 mM in 1×PBS, first order fit, rounded to nearest whole day
Protocol: 8-4a. Release Study Protocol for M1-M19 Model Traceless Linker-Drug Conjugates In Vitro
In this study a series of model traceless linker-drug conjugates, in which the drug is a low molecular weight amine-containing compound, was held in 1×PBS at 37° C. These reactions were sampled at various timepoints and analyzed to determine concentration of remaining starting compound, as well as concentration of the released amine-containing drug (p-methoxybenzylamine, 2-amino-pyridine, p-methoxyaniline, or N-methyl-p-methoxybenzylamine). Half-lives for the parent degradation and the half-lives of release for the amine-containing drug were calculated.
Method for Estimation of Amine-Containing Drug Release Rates from M1-M19
Each compound M1-M19 was prepared as a 0.1 M stock solution in DMF, as were a set of standard solutions for the released amine-containing drug (4-methoxybenzylamine, 2-aminopyridine, p-methoxyaniline, and N-methyl-p-methoxybenzylamine). A 35 μL aliquot of each solution was added to 3.465 mL of PBS to obtain 1 mM solutions of each conjugate or amine-containing drug. A 150 μL aliquot of each 1 mM solution was dispensed into LCMS vials with a polypropylene insert; 2 vials were prepared for each compound at each time point.
The vials were incubated at 37° C. At each time point (e.g., 0, 1, 5, 7, 14, 21, 28, 35, 49, and 56 days), two vials of each conjugate were removed from the incubator and frozen at −20° C. to avoid further hydrolysis. All samples were thawed and analyzed in one batch after completion of the release study using the analytical HPLC method described below. Each sample was analyzed twice. Control solutions of the amine-containing drugs were prepared prior to analysis and were analyzed as is without prior incubation at 37° C.
Analytical HPLC-MS Conditions for Study 8.4a
HPLC: Thermo Accela HPLC and Autosampler; Autosampler Tray Temperature: 8° C.; Injection Volume: 20 μL; Column: Phenomenex Kinetex C18, 2.1×50 mm, 2.6 μm. Column Temperature: Ambient; Mobile Phases: A=0.1% formic acid in water; B=0.1% formic acid in acetonitrile; Flow Rate: 200 μL/min. Gradient (time/% B): 0/0, 3/0, 10/80, 15/80, 15.1/0, 18/0.
UV: Thermo Accela PDA; Scan Range: 200-400 nm; Wavelength Step: 1 nm; Sample Rate: 20 Hz; Filter Bandwidth: 9 nm; MS: Thermo LTQ XL; Ionization Mode: ESI; Spray Voltage: 0 V at time 0-1 minutes then switched to 4 kV; Capillary Temperature: 250° C.; Divert Valve: LC eluate to waste at time 0-1 minutes then flow diverted MS; Mass Range: 120-800 Da.
The composition of the solution was evaluated at each timepoint using HPLC. Parent, intermediate and released amine-containing drug peaks were assigned by MS detection, and the relative amounts of each species were determined by integration of the peaks from the chromatogram generated using UV absorbance detection at 272 nm. The mean peak area for each compound M1-M19 on Day 0 was assigned a normalized value of 100. For the standard of the amine-containing drug being released (e.g., p-methoxybenzylamine) the mean peak area of each standard was assigned a normalized value of 100. The absolute area under curve for each species detected were compared with these values. Run-to-run peak area reproducibility was typically within 20% on strong signal and considerably worse on weak signals, so normalized signals above 100 likely correspond to values at or approaching 100 (likely 90-100, within experimental error). The percentage of parent and amine-containing drug present in the solution were calculated by dividing the relevant peak area by the mean area that was assigned a normalized value of 100 for the same species and multiplying the result by 100. The percentage of parent and amine-containing drug present in the solution was plotted versus time and the half-life of degradation for the parent and the half-life of release for the amine-containing drug were estimated using curve-fitting software assuming first order kinetics.

SMILES	Calculated stability t1/2, parent (d)
CNC(=O)OCC1CN(C(C)=O)CCN1CC(=O)NCc1ccc(OC)cc1 (stereo not drawn) [M9, 1-(4′-acetyl-1′-(2″-((4″′-methoxybenzyl)amino)-2″-oxoethyl)piperazin-2′-yl)methyl N-methylcarbamate]	No degradation
COc1ccc(CNC(=O)CN2CCN(C(C)=O)CC2COC2CCCCO2)cc1 (stereo not drawn) [M10, 2-(4′-acetyl-2′-(((tetrahydro-2″H-pyran-2″-yl)oxy)methyl)piperazin-1′-yl)-N-(4′″-methoxybenzyl)acetamide]	No degradation

same assay, conditions: 1 mM in 1×PBS, first order fit, rounded to nearest whole day, read-out: Calculated stability t1/2, parent (converted)

SMILES	half-life at 1 mM [days]
CCC(=O)OCC1CN(C(=O)CCNC(=O)OCc2ccccc2)CCN1CC(=O)NCc1ccc(OC)cc1 (stereo not drawn) [M1, (4-(3′-(((benzyloxy)carbonyl)amino)propanoyl)-1-(2″-((4″′-methoxybenzyl)amino)-2″-oxoethyl)piperazin-2-yl)methyl propionate]	37
COc1ccc(CNC(=O)CN2CCN(C(=O)CCNC(=O)OCc3ccccc3)CC2COC(C)=O)cc1 (stereo not drawn) [M2, (4-(3′-(((benzyloxy)carbonyl)amino)propanoyl)-1-(2″-((4″′-methoxybenzyl)amino)-2″-oxoethyl)piperazin-2-yl)methyl acetate]	23
COCC(=O)OCC1CN(C(=O)CCNC(=O)OCc2ccccc2)CCN1CC(=O)NCc1ccc(OC)cc1 (stereo not drawn) [M3, (4-(3′-(((benzyloxy)carbonyl)amino)propanoyl)-1-(2″-((4″′-methoxybenzyl)amino)-2″-oxoethyl)piperazin-2-yl)methyl methoxyacetate]	2
COCC(=O)OCC1CN(C(=O)CCNC(=O)OCc2ccccc2)CCN1CC(=O)N(C)Cc1ccc(OC)cc1 (stereo not drawn) [M4, (4-(3′-(((benzyloxy)carbonyl)amino)propanoyl)-1-(2″-((4′″-methoxybenzyl)(methyl)amino)-2″-oxoethyl)piperazin-2-yl)methyl 2-methoxyacetate]	2
COCC(=O)OCC1CN(C(=O)CCNC(=O)OCc2ccccc2)CCN1CC(=O)Nc1ccc(OC)cc1 (stereo not drawn) [M5, (4-(3′-(((benzyloxy)carbonyl)amino)propanoyl)-1-(2′-((4″′-methoxyphenyl)amino)-2″-oxoethyl)piperazin-2-yl)methyl 2″″-methoxyacetate]	3
COc1ccc(CNC(=O)CN2CCN(C(C)=O)CC2COC(C)=O)cc1 (stereo not drawn) [M6, (4-acetyl-1-(2′-((4″-methoxybenzyl)amino)-2′-oxoethyl)piperazin-2-yl)methyl acetate]	26
COC(=O)C1CN(C(C)=O)CCN1CC(=O)NCc1ccc(OC)cc1 (stereo not drawn) [M7, methyl 4-acetyl-1-(2′-((4″-methoxybenzyl)amino)-2′-oxoethyl)piperazine-2-carboxylate]	3
COC(=O)OCC1CN(C(C)=O)CCN1CC(=O)NCc1ccc(OC)cc1 (stereo not drawn) [M8, (4-acetyl-1-(2′-((4″-methoxybenzyl)amino)-2′-oxoethyl)piperazin-2-yl)methyl methyl carbonate]	35
CC(=O)OCC1CN(C(C)=O)CCN1CC(=O)Nc1ccccn1 (stereo not drawn) [M17, 1-(4′-acetyl-1′-(2″-oxo-2″-(pyridin-2′″-ylamino)ethyl)piperazin-2′-yl)methyl acetate]	50
CC(=O)OCC1CN(C)CCN1CC(=O)Nc1ccccn1 (stereo not drawn) [M18, 1-(4′-methyl-1′-(2″-oxo-2″-(pyridin-2′″-ylamino)ethyl)piperazin-2′-yl)methyl acetate]	8
CCC1CCN(CC(=O)Nc2ccccn2)C(COC(C)=O)C1 (stereo not drawn) [M19, 1-(4′-ethyl-1′-(2″-oxo-2″-(pyridin-2″′-ylamino)ethyl)piperidin-2′-yl)methyl acetate]	6

assay: Release study 8-4b: degradation of model conjugates M20-M27 in aqueous DMF:PBS at 37 °C, HPLC-UV/MS; type: physicochemical; settings: 1 mM in 2:1 DMF:PBS, first order fit, rounded to nearest whole day
Protocol: 8-4b. M20-M27 In Vitro Release Study
In this study, a series of model traceless linker-drug conjugates M20-M27 was held in aqueous solution at 37° C. These reactions were sampled at various timepoints and analyzed to determine the concentration of remaining starting compound. The analytical method was not optimized to determine concentration of the amine-containing drug. Half-life of degradation for the parent was calculated.
Method for Estimation of Conjugate Degradation Rates for M20-M27
Each compound M20-M27 was prepared as a 0.1 M stock solution in DMF. A 35 μL aliquot of each solution was added to 3.465 mL of 2:1 DMF:PBS (for compound M24: 3:1 DMF:PBS) to obtain 1 mM solutions of each compound M20-M27. The reaction vials were held at 37° C. At each time point (e.g., 0, 1, 3, 8, 14, 21, 28, 35, 49, 56, 70, 92 days) analytical samples were prepared by collecting 150 μL from each 1 mM solution and diluting with 75 μL DMF. Two analytical samples were collected from each reaction vial at each time point and stored at 4° C. All samples were analyzed in one batch after completion of the release study. Each sample was analyzed twice using an analytical HPLC method described below.
The composition of the reaction solution was evaluated at each timepoint using HPLC. Compound M20-M27 peaks were assigned by MS detection, and the integration of the peak from the chromatogram generated using UV absorbance detection at 272 nm was determined. The mean peak area for each compound M20-M27 on Day 0 was assigned a normalized value of 100. The absolute area under the curve at each timepoint was compared with these values. Run-to-run peak area reproducibility was typically within 20% on strong signal and considerably worse on weak signals, so normalized signals above 100 likely correspond to values at or approaching 100 (likely 90-100, within experimental error). The percentage of compounds M20-M27 remaining in the solution were calculated by dividing the relevant peak area by the mean area that was assigned a normalized value of 100 and multiplying the result by 100. The percentage of compound M20-M27 present in the solution was plotted versus time and the half-life of degradation was estimated using curve-fitting software assuming first order kinetics.
Analytical HPLC-MS Conditions for Study 8.4b.
All settings the same as for analytical HPLC-MS conditions for study 8.4a except the following: Mobile Phases: A=5 mM ammonium hydroxide in water; B=5 mM ammonium hydroxide in acetonitrile; Flow Rate: 400 μL/min: Gradient (time/% B): 0/10, 0.5/10, 4/80, 8/80, 8.1/10, 12/10. Divert valve switched at 0.5 minutes after sample injection.

SMILES	Calculated stability t1/2, parent (d)
COc1ccc(CNC(=O)CN2CCN(C(=O)CCNC(=O)OCc3ccccc3)CC2CO[Si](OC(C)C)(C(C)C)C(C)C)cc1 (stereo not drawn) [M26, benzyl N-(3-(3′-(((isopropoxydiisopropylsilyl)oxy)methyl)-4′-(2″-((4′′′-methoxybenzyl)amino)-2″-oxoethyl)piperazin-1′-yl)-3-oxopropyl)carbamate]	No degradation
CCO[Si](OCC1CN(C(=O)CCNC(=O)OCc2ccccc2)CCN1CC(=O)NCc1ccc(OC)cc1)(C(C)C)C(C)C (stereo not drawn) [M27, benzyl N-(3-(3′-(((ethoxydiisopropylsilyl)oxy)methyl)-4′-(2″-((4′′′-methoxybenzyl)amino)-2″-oxoethyl)piperazin-1′-yl)-3-oxopropyl)carbamate]	No degradation

same assay, conditions: 1 mM in 2:1 DMF:PBS, first order fit, rounded to nearest whole day, read-out: Calculated stability t1/2, parent (converted)

SMILES	half-life at 1 mM [days]
CC[Si](CC)(OCC1CN(C(=O)CCNC(=O)OCc2ccccc2)CCN1CC(=O)NCc1ccc(OC)cc1)OC(C)C (stereo not drawn) [M20, Benzyl N-(3-(3′-(((diethyl(isopropoxy)silyl)oxy)methyl)-4′-(2″-((4′″-methoxybenzyl)amino)-2″-oxoethyl)piperazin-1′-yl)-3-oxopropyl)carbamate]	51
CC[Si](CC)(OCC1CN(C(=O)CCNC(=O)OCc2ccccc2)CCN1CC(=O)NCc1ccc(OC)cc1)OC1CCOCC1 (stereo not drawn) [M21]	126
CC[Si](CC)(OCCOCCOC)OCC1CN(C(=O)CCNC(=O)OCc2ccccc2)CCN1CC(=O)NCc1ccc(OC)cc1 (stereo not drawn) [M22]	23
CCOCC(C)O[Si](CC)(CC)OCC1CN(C(=O)CCNC(=O)OCc2ccccc2)CCN1CC(=O)NCc1ccc(OC)cc1 (stereo not drawn) [M23]	47
CCC(C)O[Si](CC)(CC)OCC1CN(C(=O)CCNC(=O)OCc2ccccc2)CCN1CC(=O)NCc1ccc(OC)cc1 (stereo not drawn) [M25]	80

same assay, conditions: 1 mM in 3:1 DMF:PBS (compound M24), first order fit, read-out: Calculated stability t1/2, parent (converted)

SMILES	half-life at 1 mM [days]
CC[Si](CC)(OCC(C)C)OCC1CN(C(=O)CCNC(=O)OCc2ccccc2)CCN1CC(=O)NCc1ccc(OC)cc1 (stereo not drawn) [M24]	36
